Results published in US12473536B2, “Cultured meat product with genetically modified cells” (Trustees of Tufts College, priority 2019, dated 2025).
“And” between values parts separate entries of the source, which are not always exact repeats. Identical values can stand only once.

Key:
C2C12s = assay: Eight-day cell growth by dsDNA quantitation, C2C12s; type: cell-based, mouse; details: for Growth of engineered cells: over eight days, vs cells engineered with pGFP or pCrtB
Protocol: (§1) Growth and development of engineered cells—Growth of engineered BSCs and C2C12s was analyzed using a dsDNA quantitation kit (ThermoFisher #F2962) on days 1, 2, 4, 6, and 8 of culture. Cells were plated in 96-well plates for each time-point at a density of 1000 cells/well. At each time-point, media was removed from wells and plates were frozen at −80° C. After all time-points were frozen, plates were thawed to room temperature, and 100 uL of UltraPure water (ThermoFisher #10977023) was added to wells. Plates were incubated at 37° C. for one hour, re-frozen to −80° C., and re-thawed to room temperature. Wells were stained with 100 uL of Hoechst 33258 working solution. Fluorescence was measured with a Synergy H1 microplate reader (BioTek Instruments, Winooski, VT, USA) using excitation and emission filters centered at 360 and 460 nm, respectively. In parallel, a 96-well plate was seeded with a range of known cell densities, incubated for 12 hours, and measured using the same protocol to obtain a standard curve and convert fluorescence values to cell number. […]
(§2) Carotenoid optimization—Two methods were explored for optimizing carotenoid production in pCrtB/I/Y cells. […] To determine an appropriate puromycin concentration for increasing enzyme expression, engineered cells were cultured in media containing 2.5 μg/mL puromycin (1× puro), 5 μg/mL puromycin (2× puro) or 10 μg/mL puromycin (4× puro), and relative GFP expression was determined via flow cytometry as a proximate measure of enzyme expression. Briefly, cells were cultured, harvested, and GFP was analyzed using a BD FACSCalibur (BD Sciences) or Attune N×T (ThermoFisher) flow cytometer. Appropriate gating was performed using pGFP and unmodified cells as positive and negative controls, and mean fluorescent intensity was determined. Data were analyzed with the FlowJo software (v10). […]

engineered BSCs = assay: Thiobarbituric acid reactive substances (TBARS) lipid oxidation assay, raw or heated cells; type: cell-based, bovine
Protocol: Lipid oxidation—To analyze the antioxidant functionality of carotenoids in cells, a thiobarbituric acid reactive substances (TBARS) assay was performed. This assay measures malondialdehyde (MDA), a byproduct of unsaturated fatty acid oxidation, and so serves as a measure of lipid oxidation in cells. As lipid oxidation is often catalyzed by the processes that generate oxidative pressure, such as cooking of meat, the TBARS assay was performed on both “raw” cells, and cells that had been heated to mimic cooking. Briefly, engineered BSCs were cultured as previously described, harvested, and counted. 1.5 million cells were aliquoted to tubes for heated or unheated analysis, washed 1× in PBS, pelleted, and the supernatant PBS was removed. Collected cell pellets were stored overnight at 4° C. The next day, samples designated for heating were incubated for 10 minutes in a 100° C. heat block, cooled to room temperature, and placed on ice. All cells (heated and unheated) were suspended in 500 μL of PBS, incubated for 2 hours on ice, and sonicated on ice using a probe sonicator (Branson, St. Louis, MO, USA) at 15% intensity for 5×15 second pulses, with 20 second intervals between pulses. Next, the TBARS assay (Cayman Chemical #700870, Ann Arbor, MI, USA) was performed with 100 μL of sonicated cell lysates, following the manufacturers protocol and determining MDA by measuring absorbance at 535 nm compared to a standard curve of known MDA concentrations. The remainders of the cell lysates were frozen at −80° C. until protein quantification was performed via Bradford assay (ThermoFisher #23200) following the manufacturers protocol. Briefly, 5 μL of cell lysates were incubated for 10 minutes with 250 uL of Coomassie reagent, and the absorbance was measured at 595 nm and compared to a BSA standard curve. TBARS measurements were normalized with protein content for each sample in order to obtain corrected cellular MDA (mg/g protein).

pCrtB/I/Y BSCs [1] = assay: Pax7 and MHC immunostaining of engineered BSCs before and after differentiation; type: cell-based, bovine
Protocol: Immunofluorescence and cell characterization—To confirm the identity of isolated primary BSCs, cells were stained for Pax7 and Myosin Heavy Chain (MHC) before and after differentiation, respectively. These markers confirm the primary and terminal states of satellite cell myogenesis and therefore act to verify the nature and myogenicity of isolated cells. Proliferative cells and cells after one week of differentiation were fixed with 4% paraformaldehyde (ThermoFisher #AAJ61899AK) for 30 minutes, washed in PBS, permeabilized for 15 minutes using 0.5% Triton X (Sigma #T8787) in PBS, blocked for 45 minutes using 5% goat serum (ThermoFisher #16210064) in PBS with 0.05% sodium azide (Sigma #S2002), and washed with PBS containing 0.1% Tween-20 (Sigma #P1379). […]
Growth and development of engineered cells—Growth of engineered BSCs and C2C12s was analyzed using a dsDNA quantitation kit (ThermoFisher #F2962) on days 1, 2, 4, 6, and 8 of culture. […] Fluorescence was measured with a Synergy H1 microplate reader (BioTek Instruments, Winooski, VT, USA) using excitation and emission filters centered at 360 and 460 nm, respectively. In parallel, a 96-well plate was seeded with a range of known cell densities, incubated for 12 hours, and measured using the same protocol to obtain a standard curve and convert fluorescence values to cell number. […]

a range of cell types = details: cited from earlier work
pCrtB/I/Y BSCs [2] = assay: GFP expression by flow cytometry under puromycin selection, BSCs; type: cell-based, bovine
Source text: as §2, with “cells. The first focused on increasing gene expression by increasing puromycin selective pressure. The second focused on increasing levels of the carotenoid pathway precursor farnesyl pyrophosphate (FPP) by inhibiting downstream reactions in one of FPP's alternative metabolic pathways—cholesterol synthesis—using the small molecule ketoconazole (Sun et al., 2007). By exploring these two approaches, the possibility for a single approach to fail to address a rate-limiting step in carotenoid production was reduced.” for “cells.”

[3] = tested on: C2C12 mouse skeletal myoblasts; assay: Carotenoid quantification by quantitative HPLC in engineered C2C12s; type: cell-based; details: pCrtB/I/Y C2C12s
pCrtB/I/Y C2C12s = assay: GFP expression by flow cytometry under puromycin selection, C2C12s; type: cell-based, mouse; details: 4× concentration (10 μg/mL)
Source text: as §2, with “cells. The first focused on increasing gene expression by increasing puromycin selective pressure. The second focused on increasing levels of the carotenoid pathway precursor farnesyl pyrophosphate (FPP) by inhibiting downstream reactions in one of FPP's alternative metabolic pathways—cholesterol synthesis—using the small molecule ketoconazole (Sun et al., 2007). By exploring these two approaches, the possibility for a single approach to fail to address a rate-limiting step in carotenoid production was reduced.” for “cells.”

[4] = tested on: primary bovine satellite cells (BSCs); assay: Carotenoid quantification by quantitative HPLC in engineered BSCs; type: cell-based; details: for Effect of ketoconazole and puromycin conditioning on β-carotene: pCrtB/I/Y BSCs
[5] = tested on: bovine satellite cells (BSCs); assay: Adipogenic transdifferentiation of BSCs with free fatty acids (Oil Red O staining); type: cell-based; details: 100 uM to 150 uM
Source text: This adipogenic transdifferentiation protocol will be further optimized through a fractional factorial experimental design, testing various concentrations oleic, myristoleic, linoleic, erucic, and elaidic acid. Lipid accumulation will be verified qualitatively with Oil Red O staining and quantified with the AdipoRed plate reader assay (Lonza). Transdifferentiation of satellite cells into mature adipocytes will enable muscle and fat components of cultured meat to be generated from a single cell source throughout this proposal, thus increasing project efficiency and impact.

BSCs [6] = assay: Four-day growth of BSCs in serum-free B8 media and FGF-2 dilutions; type: cell-based, bovine; details: four days, within B8 media
Protocol: Briefly, B8 media will be comprised of DMEM:F12 (1:1) supplemented with L-ascorbic acid 2-phosphate (200 ug/mL), insulin (20 ug/mL), transferrin (20 ug/mL), sodium selenite (20 ng/mL), FGF-2 (10 ng/mL), neuregulin 1 (NRG-1; 0.1 ng/mL), TGFβ-3 ([…]), and insulin-like growth factor 1 (IGF-1; 10 ng/mL). Formulations absent one or more growth factors will simultaneously generated, as will formulations lacking all growth factors but containing previously reported serum-replacements made from rapeseed peptide fractions, maitake mushroom extract, and silk-derived sericin proteins.

BSCs [7] = assay: Eight-day cell growth by dsDNA quantitation, BSCs; type: cell-based, bovine; details: 5 μg/mL, pCrtB/I/Y BSCs, 8-day growth
Protocol: as §1
Carotenoid optimization—Two methods were explored for optimizing carotenoid production in pCrtB/I/Y cells. […] Briefly, cells were cultured, harvested, and GFP was analyzed using a BD FACSCalibur (BD Sciences) or Attune N×T (ThermoFisher) flow cytometer. […] Data were analyzed with the FlowJo software (v10). […]

pepsin = details: cited from earlier work
[8] = heated samples (10 minutes, 100° C.)
[9] = increasing levels of selection antibiotic

pSBbi-(CMV-CrtY-T2A-CrtB-T2A-CrtI-P2A-GFP)-pur [pCrtB/I/Y]
Growth of engineered cells (C2C12s): higher growth over eight days
Cellular MDA (lipid oxidation) (engineered BSCs; [8]): 2.3 mg/g protein
Cellular MDA (lipid oxidation) (engineered BSCs; unheated samples): 1.1 mg/g protein
Myogenic potential (Pax7 and MHC staining) (pCrtB/I/Y BSCs [1]): maintenance of Pax7 expression and MHC-positive myotube formation

C=C(C)[C@@H]1CCC(C)=C[C@H]1c1c(O)cc(CCCCC)cc1O [cannabidiol]
Treatment range explored without mention of excess cell death (a range of cell types): 1-50 uM and 0.313-15.65 ug/mL

pSBbi-(CMV-CrtB-T2A-CrtI-P2A-GFP)-pur [pCrtB/I]
Growth of engineered cells (C2C12s): higher growth over eight days
Cellular MDA (lipid oxidation) (engineered BSCs; [8]): 1.7 mg/g protein
Cellular MDA (lipid oxidation) (engineered BSCs; unheated samples): 1.0 mg/g protein

COc1ccc(C[C@H](N)C(=O)N[C@H]2[C@@H](O)[C@H](n3cnc4c(N(C)C)ncnc43)O[C@@H]2CO)cc1 [puromycin]
Effect on GFP expression (pCrtB/I/Y BSCs [2]; 4× concentration (10 μg/mL), BSCs): significant increase in GFP expression
Increase in gene expression (as shown by GFP expression) (pCrtB/I/Y BSCs [2]; [9]): two-fold
Effect of ketoconazole and puromycin together on β-carotene [3]: do not significantly increase β-carotene
Effect on GFP expression (pCrtB/I/Y C2C12s): significant increase in GFP expression
Increase in carotenoid levels [4, 9]: ~3 fold
Effect of ketoconazole and puromycin conditioning on β-carotene [4]: additive increase in β-carotene

pSBbi-(CMV-CrtB-T2A-)-pur [pCrtB]
Cellular MDA (lipid oxidation) (engineered BSCs; [8]): 3.6 mg/g protein
Cellular MDA (lipid oxidation) (engineered BSCs; unheated samples): 1.7 mg/g protein

CCCCC/C=C\C/C=C\CCCCCCCC(=O)O [linoleic acid]
Lipid accumulation (Oil Red O) [5]: Sparse lipid accumulation

FGF-2: fibroblast growth-factor 2
FGF-2 concentration showing significantly improved growth vs FGF-2-free B8 media (BSCs [6]): greater than or equal to 1.25 ng/mL

CC(=O)N1CCN(c2ccc(OCC3COC(Cn4ccnc4)(c4ccc(Cl)cc4Cl)O3)cc2)CC1 (stereo not drawn) [ketoconazole]
Effect on growth (C2C12s; 5 μg/mL, pCrtB/I/Y C2C12s, 8-day growth): not significantly effect growth
Effect of ketoconazole and puromycin together on β-carotene [3]: do not significantly increase β-carotene
Effect on growth (BSCs [7]): not significantly effect growth
Effect of ketoconazole and puromycin conditioning on β-carotene [4]: additive increase in β-carotene

B1: V565: anti-TNFα nanobody V565 (SEQ ID NO:7) (protein)
VHH: DVQLVESGGGLVQPGGSLKLSCAASGFDFSSHWMYWVRQAPGKELEWLSEINTNGLITHYGDSVKGRFTVSRNNAANKMYLELTRLEPEDTALYYCARNQHGLNKGQGTQVTVSS
Sensitivity to pepsin (pepsin): sensitive to pepsin
Stability in the gastric environment (pepsin): largely stable in the gastric environment
